Biological target: T1, cellular PARG (Homo sapiens, UniProt Q86W56)
T1 construct: endogenous in cells; host or cells: HeLa
Assay: Nuclear PAR accumulation assay (immunofluorescence high-content imaging, MMS-treated HeLa cells)
Type: cell-based
Conditions: 1 hour compound then MMS 50 μg/mL for an additional hour
How it was run: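 HeLa cells pretreated with compound for 1 h at 37° C, then given 50 μg/mL MMS for another hour. After methanol fixation, PAR was immunostained with DAPI nuclear counterstain; per-nucleus intensity and percent PAR-positive cells were imaged at 20× (≥1,000 cells/well). IC50 from four-parameter logistic fit.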

T1 sequence (Q86W56 whole entry): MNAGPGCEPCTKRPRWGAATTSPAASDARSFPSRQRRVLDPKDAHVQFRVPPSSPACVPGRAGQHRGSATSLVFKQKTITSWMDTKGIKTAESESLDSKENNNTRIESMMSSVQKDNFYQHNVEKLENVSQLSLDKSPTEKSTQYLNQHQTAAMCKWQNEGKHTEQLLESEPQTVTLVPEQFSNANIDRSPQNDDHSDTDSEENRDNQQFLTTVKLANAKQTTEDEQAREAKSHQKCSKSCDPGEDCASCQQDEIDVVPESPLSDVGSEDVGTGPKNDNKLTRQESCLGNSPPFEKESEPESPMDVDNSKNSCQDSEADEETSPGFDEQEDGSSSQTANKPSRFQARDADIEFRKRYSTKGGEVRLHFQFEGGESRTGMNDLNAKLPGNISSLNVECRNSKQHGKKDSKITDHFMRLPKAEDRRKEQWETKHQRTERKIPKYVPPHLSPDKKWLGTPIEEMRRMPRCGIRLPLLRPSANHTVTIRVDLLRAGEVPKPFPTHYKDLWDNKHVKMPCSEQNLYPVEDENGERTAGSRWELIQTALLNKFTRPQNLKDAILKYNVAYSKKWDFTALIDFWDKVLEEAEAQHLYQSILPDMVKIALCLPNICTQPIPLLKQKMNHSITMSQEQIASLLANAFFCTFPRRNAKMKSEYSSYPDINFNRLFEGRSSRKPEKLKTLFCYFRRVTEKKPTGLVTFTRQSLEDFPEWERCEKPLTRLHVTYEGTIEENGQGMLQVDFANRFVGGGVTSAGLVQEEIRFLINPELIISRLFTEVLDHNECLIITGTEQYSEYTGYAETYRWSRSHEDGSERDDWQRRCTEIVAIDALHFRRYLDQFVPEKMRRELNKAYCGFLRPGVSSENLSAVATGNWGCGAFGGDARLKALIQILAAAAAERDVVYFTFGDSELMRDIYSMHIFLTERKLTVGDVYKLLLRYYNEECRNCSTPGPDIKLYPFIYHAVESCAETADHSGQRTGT

IC50 [nM] | Compound
100 to 1000 | C[C@@H]1CN=C2N(Cc3cnn4c3CNCC4)C(=O)c3cc(S(=O)(=O)NC4(C)CC4)ccc3N21 [Example 177, (R)-1-methyl-N-(1-methylcyclopropyl)-5-oxo-4-((4,5,6,7-tetrahydropyrazolo[1,5-a]pyrazin-3-yl)methyl)-1,2,4,5-tetrahydroimidazo[1,2-a]quinazoline-7-sulfonamide]
< 100 | Cc1cc([C@@H]2CN=C3N(Cc4cnn(C)c4)C(=O)c4cc(S(=O)(=O)NC5(C)CC5)ccc4N32)on1 [Example 107, (S)-4-((1-methyl-1H-pyrazol-4-yl)methyl)-N-(1-methylcyclopropyl)-1-(3-methylisoxazol-5-yl)-5-oxo-1,2,4,5-tetrahydroimidazo[1,2-a]quinazoline-7-sulfonamide]
< 100 | CN(C)C1([C@@H]2CN=C3N(Cc4cnn(C)c4)C(=O)c4cc(S(=O)(=O)NC5(C)CC5)ccc4N32)CC1 [Example 270, (S)-1-(1-(dimethylamino)cyclopropyl)-4-((1-methyl-1H-pyrazol-4-yl)methyl)-N-(1-methylcyclopropyl)-5-oxo-1,2,4,5-tetrahydroimidazo[1,2-a]quinazoline-7-sulfonamide]
< 100 | Cn1cc(CN2C(=O)c3cc(S(=O)(=O)NC4(C)CC4)ccc3N3C2=NC[C@H]3C#Cc2ccn(C)n2)cn1 [Example 65, (R)-1-((1-methyl-1H-pyrazol-3-yl)ethynyl)-4-((1-methyl-1H-pyrazol-4-yl)methyl)-N-(1-methylcyclopropyl)-5-oxo-1,2,4,5-tetrahydroimidazo[1,2-a]quinazoline-7-sulfonamide]
1000 to 10000 | C[C@@H]1CN=C2N(Cc3ccnc(/C=C/CN(C)C)c3)C(=O)c3cc(S(=O)(=O)NC4(C)CC4)ccc3N21 [Example 267, (R,E)-4-((2-(3-(dimethylamino)prop-1-en-1-yl)pyridin-4-yl)methyl)-1-methyl-N-(1-methylcyclopropyl)-5-oxo-1,2,4,5-tetrahydroimidazo[1,2-a]quinazoline-7-sulfonamide]
100 to 1000 | C[C@@H]1CN=C2N(Cc3cnn(C)c3)C(=O)c3cc(S(=O)(=O)NC4(C)CC4)cc(C4=CCNCC4)c3N21 [Example 80, (R)-1-methyl-4-((1-methyl-1H-pyrazol-4-yl)methyl)-N-(1-methylcyclopropyl)-5-oxo-9-(1,2,3,6-tetrahydropyridin-4-yl)-1,2,4,5-tetrahydroimidazo[1,2-a]quinazoline-7-sulfonamide]
< 100 | C[C@@H]1CN=C2N(Cc3cn(C)nc3CC#N)C(=O)c3cc(S(=O)(=O)NC4(C)CC4)ccc3N21 [Example 243, (R)-4-((3-(cyanomethyl)-1-methyl-1H-pyrazol-4-yl)methyl)-1-methyl-N-(1-methylcyclopropyl)-5-oxo-1,2,4,5-tetrahydroimidazo[1,2-a]quinazoline-7-sulfonamide]
100 to 1000 | C[C@@H]1CN=C2N(Cc3cnn(C)c3)C(=O)c3cc(S(=O)(=O)NC4(C)CC4)cc(N4CCC(C(=O)N(C)C)CC4)c3N21 [Example 37, (R)-N,N-dimethyl-1-(1-methyl-4-((1-methyl-1H-pyrazol-4-yl)methyl)-7-(N-(1-methylcyclopropyl)sulfamoyl)-5-oxo-1,2,4,5-tetrahydroimidazo[1,2-a]quinazolin-9-yl)piperidine-4-carboxamide]
< 100 | CN1C(=O)c2cc(S(=O)(=O)NC3(C)CC3)ccc2N2C1=NC[C@H]2C#Cc1cn(C)nc1F [Example 120, (R)-1-((3-fluoro-1-methyl-1H-pyrazol-4-yl)ethynyl)-4-methyl-N-(1-methylcyclopropyl)-5-oxo-1,2,4,5-tetrahydroimidazo[1,2-a]quinazoline-7-sulfonamide]
< 100 | C[C@@H]1CN=C2N(Cc3cn(C)nc3C(F)(F)F)C(=O)c3cc(S(=O)(=O)NC4(C)CC4)cc(Br)c3N21 [Example 23, (R)-9-bromo-1-methyl-4-((1-methyl-3-(trifluoromethyl)-1H-pyrazol-4-yl)methyl)-N-(1-methylcyclopropyl)-5-oxo-1,2,4,5-tetrahydroimidazo[1,2-a]quinazoline-7-sulfonamide]
100 to 1000 | C[C@@H]1CN=C2N(Cc3ccnc(C#N)c3)C(=O)c3cc(S(=O)(=O)NC4(C)CC4)ccc3N21 [Example 239, (R)-4-((2-cyanopyridin-4-yl)methyl)-1-methyl-N-(1-methylcyclopropyl)-5-oxo-1,2,4,5-tetrahydroimidazo[1,2-a]quinazoline-7-sulfonamide]
100 to 1000 | [2H]C([2H])(c1cnn(C)c1)N1C(=O)c2cc(S(=O)(=O)NC3(C)CC3)cc(Cl)c2N2C1=NC[C@@H]2C#CC1CC1 [Example 92, (S)-9-chloro-1-(cyclopropylethynyl)-4-((1-methyl-1H-pyrazol-4-yl)methyl-d2)-N-(1-methylcyclopropyl)-5-oxo-1,2,4,5-tetrahydroimidazo[1,2-a]quinazoline-7-sulfonamide]

The remaining lines, values behind:

Compound | IC50 [nM]
[2H]C([2H])(c1cnn(C)c1)N1C(=O)c2cc(S(=O)(=O)NC3(C)CC3)ccc2N2C1=NC[C@H]2C#Cc1cnn(C)n1 [Example 163, (R)-4-((1-methyl-1H-pyrazol-4-yl)methyl-d2)-1-((2-methyl-2H-1,2,3-triazol-4-yl)ethynyl)-N-(1-methylcyclopropyl)-5-oxo-1,2,4,5-tetrahydroimidazo[1,2-a]quinazoline-7-sulfonamide] | < 100
COC(=O)[C@@H]1N=C2N(Cc3cnn(C)c3)C(=O)c3cc(S(=O)(=O)NC4(C)CC4)ccc3N2[C@@H]1C [Example 293, methyl (1R,2R)-1-methyl-4-((1-methyl-1H-pyrazol-4-yl)methyl)-7-(N-(1-methylcyclopropyl)sulfamoyl)-5-oxo-1,2,4,5-tetrahydroimidazo[1,2-a]quinazoline-2-carboxylate] | 100 to 1000
CN1C(=O)c2cc(S(=O)(=O)NC3(C)CC3)ccc2N2C1=NCC2C#Cc1ccnc(F)c1 (stereo not drawn) [Example 224, 1-((2-fluoropyridin-4-yl)ethynyl)-4-methyl-N-(1-methylcyclopropyl)-5-oxo-1,2,4,5-tetrahydroimidazo[1,2-a]quinazoline-7-sulfonamide] | < 100
Cn1cc(CN2C(=O)c3cc(S(=O)(=O)NC4(C)CC4)ccc3N3C2=NC[C@H]3C#Cc2ccnn2C2CC2)cn1 [Example 193, (R)-1-((1-cyclopropyl-1H-pyrazol-5-yl)ethynyl)-4-((1-methyl-1H-pyrazol-4-yl)methyl)-N-(1-methylcyclopropyl)-5-oxo-1,2,4,5-tetrahydroimidazo[1,2-a]quinazoline-7-sulfonamide] | < 100
CN1C(=O)c2cc(S(=O)(=O)NC3(C)CC3)ccc2N2C1=NCC2C#Cc1ccnc2c1OCCO2 (stereo not drawn) [Example 170, 1-((2,3-dihydro-[1,4]dioxino[2,3-b]pyridin-8-yl)ethynyl)-4-methyl-N-(1-methylcyclopropyl)-5-oxo-1,2,4,5-tetrahydroimidazo[1,2-a]quinazoline-7-sulfonamide] | < 100
Cc1cc(F)ccc1-c1cc(S(=O)(=O)NC2(C)CC2)cc2c1N1CCN=C1N(Cc1cnn(C)c1)C2=O [Example 20, 9-(4-fluoro-2-methylphenyl)-4-((1-methyl-1H-pyrazol-4-yl)methyl)-N-(1-methylcyclopropyl)-5-oxo-1,2,4,5-tetrahydroimidazo[1,2-a]quinazoline-7-sulfonamide] | < 100
[2H]C([2H])(c1cnn(C)c1)N1C(=O)c2cc(S(=O)(=O)NC3(C)CC3)ccc2N2C1=NC[C@H]2C#Cc1cnc(C)nc1 [Example 275, (R)-4-((1-methyl-1H-pyrazol-4-yl)methyl-d2)-N-(1-methylcyclopropyl)-1-((2-methylpyrimidin-5-yl)ethynyl)-5-oxo-1,2,4,5-tetrahydroimidazo[1,2-a]quinazoline-7-sulfonamide] | < 100
[2H]C([2H])(c1cnn(C)c1)N1C(=O)c2cc(S(=O)(=O)NC3(C)CC3)ccc2N2C1=NC[C@H]2C#Cc1nccnc1OC [Example 249, (R)-1-((3-methoxypyrazin-2-yl)ethynyl)-4-((1-methyl-1H-pyrazol-4-yl)methyl-d2)-N-(1-methylcyclopropyl)-5-oxo-1,2,4,5-tetrahydroimidazo[1,2-a]quinazoline-7-sulfonamide] | < 100
Cn1cc(CN2C(=O)c3cc(S(=O)(=O)NC4(C)CC4)ccc3N3C2=NCC3COc2ccc(Cl)cc2)cn1 (stereo not drawn) [Example 143, 1-((4-chlorophenoxy)methyl)-4-((1-methyl-1H-pyrazol-4-yl)methyl)-N-(1-methylcyclopropyl)-5-oxo-1,2,4,5-tetrahydroimidazo[1,2-a]quinazoline-7-sulfonamide] | 100 to 1000
[2H]C([2H])(c1cnn(C)c1)N1C(=O)c2cc(S(=O)(=O)NC3(C)CC3)ccc2N2C1=N[C@H]1C[C@H](N(C)C)C[C@H]12 [Example 284, (7aS,9S,10aR)-9-(dimethylamino)-6-((1-methyl-1H-pyrazol-4-yl)methyl-d2)-N-(1-methylcyclopropyl)-5-oxo-6,7a,8,9,10,10a-hexahydro-5H-cyclopenta[4,5]imidazo[1,2-a]quinazoline-3-sulfonamide] | 1000 to 10000
[2H]C([2H])(c1cnn(C)c1)N1C(=O)c2cc(S(=O)(=O)NC3(C)CC3)ccc2N2C1=NC[C@H]2COCCN(C)C [Example 114, (S)-1-((2-(dimethylamino)ethoxy)methyl) -4-((1-methyl-1H-pyrazol-4-yl)methyl-d2)-N-(1-methylcyclopropyl)-5-oxo-1,2,4,5-tetrahydroimidazo[1,2-a]quinazoline-7-sulfonamide] | 100 to 1000
Cn1cc(CN2C(=O)c3cc(S(=O)(=O)NC4(C)CC4)ccc3N3C2=NC[C@H]3COc2ccn(C)n2)cn1 [Example 141, (S)-1-(((1-methyl-1H-pyrazol-3-yl)oxy)methyl)-4-((1-methyl-1H-pyrazol-4-yl)methyl)-N-(1-methylcyclopropyl)-5-oxo-1,2,4,5-tetrahydroimidazo[1,2-a]quinazoline-7-sulfonamide] | 100 to 1000

From patent US20260285875A1, “INHIBITORS OF PARG” (858 Therapeutics, Inc., priority 2023, published 2026)
